Source: patent US7795290B2 (Genentech, Inc., priority 2004, dated 2010)
One block for each compound: values may come before it.

Key:
Assay in all cases: HTS ATP-utilizing enzyme assay, off-chip mobility-shift (Caliper HTS 250)
Format in all cases: biochemical
Details in all cases: kinase named = inhibitory activity/selectivity; test compound 10 μM; active = greater than three-sigma from mean
CDK2 = CDK2 (Homo sapiens, UniProt P24941)
Procedure, shortened: (§1)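 Single-point screen at 10 µM compound: kinase reactions ran 2.5 h at 20–22 °C and were stopped with termination buffer. Inhibition was read as the substrate-to-phosphopeptide ratio by microfluidic mobility shift, with EDTA and DMSO wells as controls. Hits were called by three-sigma limits.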

BMX = target: T1, BMX (Homo sapiens, UniProt P51813)
T1 sequence (P51813 1-675): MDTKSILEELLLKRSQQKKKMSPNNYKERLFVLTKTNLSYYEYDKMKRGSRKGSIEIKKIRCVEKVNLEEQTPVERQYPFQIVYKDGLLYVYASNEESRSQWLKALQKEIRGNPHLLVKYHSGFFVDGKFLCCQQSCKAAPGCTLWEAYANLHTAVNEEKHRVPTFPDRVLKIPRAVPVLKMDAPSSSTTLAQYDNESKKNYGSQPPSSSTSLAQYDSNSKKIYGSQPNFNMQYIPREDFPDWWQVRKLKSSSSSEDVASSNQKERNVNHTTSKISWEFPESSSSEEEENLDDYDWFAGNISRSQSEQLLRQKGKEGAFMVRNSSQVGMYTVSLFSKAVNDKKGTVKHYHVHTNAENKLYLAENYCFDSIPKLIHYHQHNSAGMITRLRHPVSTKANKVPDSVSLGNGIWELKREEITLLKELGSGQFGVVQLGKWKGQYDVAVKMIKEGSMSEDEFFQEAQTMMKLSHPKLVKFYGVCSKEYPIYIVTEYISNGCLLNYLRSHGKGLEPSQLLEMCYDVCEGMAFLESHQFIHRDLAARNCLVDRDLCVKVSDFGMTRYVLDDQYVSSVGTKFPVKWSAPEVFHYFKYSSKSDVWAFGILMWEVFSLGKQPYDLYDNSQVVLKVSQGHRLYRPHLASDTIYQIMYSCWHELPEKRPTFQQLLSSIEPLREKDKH
Procedure, shortened: as §1

AKT1 = target: T2, AKT1 (Homo sapiens, UniProt P31749)
T2 construct: purchased Upstate 14-276
Procedure, shortened: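 AKT1 activity was measured by off-chip mobility shift (Caliper HTS 250) as the ratio of peptide substrate to phosphorylated product. Test compound was at 10 μM, with 2.5 h incubation at 20–22° C. EDTA wells served as 100% control and DMSO wells as 0%. Hits were called at three-sigma limits.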

CDK2/cyclin E = CDK2/cyclin E (Homo sapiens, UniProt P24941)
Procedure, shortened: as §1

SYK = SYK (Homo sapiens, UniProt P43405)
Procedure, shortened: as §1

PDK1 = target: T3, PDK1 (Homo sapiens, UniProt O15530)
T3 sequence (O15530 1-556): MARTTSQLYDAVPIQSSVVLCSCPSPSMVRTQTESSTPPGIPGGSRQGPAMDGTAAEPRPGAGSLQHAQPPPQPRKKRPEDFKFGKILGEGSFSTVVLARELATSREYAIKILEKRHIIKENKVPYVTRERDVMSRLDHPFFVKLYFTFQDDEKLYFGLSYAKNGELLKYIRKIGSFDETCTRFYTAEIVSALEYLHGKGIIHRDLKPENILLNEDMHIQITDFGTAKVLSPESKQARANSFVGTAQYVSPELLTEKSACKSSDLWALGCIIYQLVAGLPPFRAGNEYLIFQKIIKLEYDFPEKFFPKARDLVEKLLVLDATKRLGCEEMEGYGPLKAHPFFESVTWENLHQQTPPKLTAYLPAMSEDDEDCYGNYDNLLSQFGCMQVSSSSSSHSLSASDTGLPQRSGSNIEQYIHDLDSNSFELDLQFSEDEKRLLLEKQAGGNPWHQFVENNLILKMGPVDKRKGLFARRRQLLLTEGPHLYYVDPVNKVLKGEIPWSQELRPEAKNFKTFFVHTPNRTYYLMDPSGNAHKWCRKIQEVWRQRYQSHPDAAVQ
Procedure, shortened: as §1

DYRK2 = target: T4, DYRK2 (Homo sapiens, UniProt Q92630)
T4 sequence (Q92630 1-601): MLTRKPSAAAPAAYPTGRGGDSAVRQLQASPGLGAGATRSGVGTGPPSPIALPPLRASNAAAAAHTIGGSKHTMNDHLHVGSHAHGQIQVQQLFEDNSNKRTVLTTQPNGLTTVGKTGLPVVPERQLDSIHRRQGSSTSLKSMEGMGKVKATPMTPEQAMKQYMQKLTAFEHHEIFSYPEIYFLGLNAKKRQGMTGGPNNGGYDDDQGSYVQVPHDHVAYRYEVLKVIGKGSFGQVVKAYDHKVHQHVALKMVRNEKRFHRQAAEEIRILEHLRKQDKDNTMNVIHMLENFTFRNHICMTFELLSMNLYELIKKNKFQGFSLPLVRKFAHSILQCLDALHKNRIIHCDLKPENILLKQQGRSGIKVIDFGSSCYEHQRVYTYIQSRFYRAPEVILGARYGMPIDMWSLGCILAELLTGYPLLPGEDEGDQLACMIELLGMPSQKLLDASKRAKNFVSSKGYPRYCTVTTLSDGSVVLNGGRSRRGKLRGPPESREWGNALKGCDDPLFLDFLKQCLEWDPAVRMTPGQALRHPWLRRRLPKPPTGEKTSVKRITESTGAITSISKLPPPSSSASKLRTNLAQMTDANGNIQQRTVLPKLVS
Procedure, shortened: as §1

FLT-3 = target: T5, FLT-3 (Homo sapiens, UniProt P36888)
T5 sequence (P36888 27-993): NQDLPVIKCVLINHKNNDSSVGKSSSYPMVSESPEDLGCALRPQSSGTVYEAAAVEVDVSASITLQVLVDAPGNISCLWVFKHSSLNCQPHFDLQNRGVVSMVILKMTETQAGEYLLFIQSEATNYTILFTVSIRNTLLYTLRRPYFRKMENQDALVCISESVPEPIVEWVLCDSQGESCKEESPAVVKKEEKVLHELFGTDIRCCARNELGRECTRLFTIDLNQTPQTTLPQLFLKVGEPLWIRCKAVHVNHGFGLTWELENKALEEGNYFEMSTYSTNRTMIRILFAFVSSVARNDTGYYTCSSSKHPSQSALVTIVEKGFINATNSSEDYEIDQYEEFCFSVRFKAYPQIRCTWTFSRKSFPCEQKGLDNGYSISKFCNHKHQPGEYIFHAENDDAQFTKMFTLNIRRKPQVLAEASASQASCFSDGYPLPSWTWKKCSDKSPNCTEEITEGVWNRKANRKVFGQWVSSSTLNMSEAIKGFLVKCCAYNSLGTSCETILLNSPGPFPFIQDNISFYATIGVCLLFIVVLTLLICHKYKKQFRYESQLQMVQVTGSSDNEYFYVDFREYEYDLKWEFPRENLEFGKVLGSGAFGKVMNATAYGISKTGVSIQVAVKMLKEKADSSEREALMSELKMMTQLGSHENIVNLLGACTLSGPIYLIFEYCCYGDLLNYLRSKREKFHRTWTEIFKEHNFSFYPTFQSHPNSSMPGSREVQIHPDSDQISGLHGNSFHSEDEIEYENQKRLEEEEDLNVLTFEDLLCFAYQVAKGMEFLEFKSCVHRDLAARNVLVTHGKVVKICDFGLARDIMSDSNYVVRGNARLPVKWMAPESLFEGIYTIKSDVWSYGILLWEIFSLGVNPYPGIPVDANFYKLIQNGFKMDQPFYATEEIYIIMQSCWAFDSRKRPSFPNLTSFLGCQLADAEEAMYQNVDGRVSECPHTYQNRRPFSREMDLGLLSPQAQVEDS
Procedure, shortened: as §1

KIT = KIT (Homo sapiens, UniProt P10721)
Procedure, shortened: as §1

PDGFR-α = PDGFR-α (Homo sapiens, UniProt P16234)
Procedure, shortened: as §1

ZAP70 = target: T6, ZAP70 (Homo sapiens, UniProt P43403)
T6 sequence (P43403 1-619): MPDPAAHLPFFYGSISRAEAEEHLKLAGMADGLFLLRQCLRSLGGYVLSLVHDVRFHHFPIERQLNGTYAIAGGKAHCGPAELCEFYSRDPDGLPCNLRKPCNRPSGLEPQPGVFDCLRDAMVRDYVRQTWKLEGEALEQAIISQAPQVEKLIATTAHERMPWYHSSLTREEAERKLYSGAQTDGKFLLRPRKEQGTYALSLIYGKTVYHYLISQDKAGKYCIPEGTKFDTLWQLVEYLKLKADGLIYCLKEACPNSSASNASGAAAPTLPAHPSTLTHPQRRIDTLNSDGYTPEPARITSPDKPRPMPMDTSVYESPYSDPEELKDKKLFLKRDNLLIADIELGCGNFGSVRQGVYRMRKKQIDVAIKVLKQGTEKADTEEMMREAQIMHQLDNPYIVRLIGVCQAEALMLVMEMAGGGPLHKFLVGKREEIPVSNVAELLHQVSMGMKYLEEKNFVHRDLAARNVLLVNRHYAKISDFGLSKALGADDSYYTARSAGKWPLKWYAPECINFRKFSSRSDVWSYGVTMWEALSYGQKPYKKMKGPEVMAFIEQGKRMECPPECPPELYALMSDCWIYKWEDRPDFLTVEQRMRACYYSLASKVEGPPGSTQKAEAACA
Procedure, shortened: as §1

CHEK2 = CHEK2 (Homo sapiens, UniProt O96017)
Procedure, shortened: as §1

MAPKAPK-2 = MAPKAPK-2 (Homo sapiens, UniProt P49137)
Procedure, shortened: as §1

INSR = INSR (Homo sapiens, UniProt P06213)
Procedure, shortened: as §1

T2 sequence (P31749 whole entry): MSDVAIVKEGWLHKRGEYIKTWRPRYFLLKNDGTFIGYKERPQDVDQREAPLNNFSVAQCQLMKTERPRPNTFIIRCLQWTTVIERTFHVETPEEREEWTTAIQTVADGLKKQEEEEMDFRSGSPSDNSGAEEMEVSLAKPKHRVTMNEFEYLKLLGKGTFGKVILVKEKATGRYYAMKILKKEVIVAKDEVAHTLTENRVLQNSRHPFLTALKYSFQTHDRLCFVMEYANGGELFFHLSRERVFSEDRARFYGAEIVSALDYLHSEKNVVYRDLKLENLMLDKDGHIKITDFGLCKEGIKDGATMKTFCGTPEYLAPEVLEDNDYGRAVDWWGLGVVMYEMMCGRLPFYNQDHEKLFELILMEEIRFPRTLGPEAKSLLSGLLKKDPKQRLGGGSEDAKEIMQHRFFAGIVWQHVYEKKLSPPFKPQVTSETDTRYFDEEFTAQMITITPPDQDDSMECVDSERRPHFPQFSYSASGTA
Sequence of KIT (P10721 26-976): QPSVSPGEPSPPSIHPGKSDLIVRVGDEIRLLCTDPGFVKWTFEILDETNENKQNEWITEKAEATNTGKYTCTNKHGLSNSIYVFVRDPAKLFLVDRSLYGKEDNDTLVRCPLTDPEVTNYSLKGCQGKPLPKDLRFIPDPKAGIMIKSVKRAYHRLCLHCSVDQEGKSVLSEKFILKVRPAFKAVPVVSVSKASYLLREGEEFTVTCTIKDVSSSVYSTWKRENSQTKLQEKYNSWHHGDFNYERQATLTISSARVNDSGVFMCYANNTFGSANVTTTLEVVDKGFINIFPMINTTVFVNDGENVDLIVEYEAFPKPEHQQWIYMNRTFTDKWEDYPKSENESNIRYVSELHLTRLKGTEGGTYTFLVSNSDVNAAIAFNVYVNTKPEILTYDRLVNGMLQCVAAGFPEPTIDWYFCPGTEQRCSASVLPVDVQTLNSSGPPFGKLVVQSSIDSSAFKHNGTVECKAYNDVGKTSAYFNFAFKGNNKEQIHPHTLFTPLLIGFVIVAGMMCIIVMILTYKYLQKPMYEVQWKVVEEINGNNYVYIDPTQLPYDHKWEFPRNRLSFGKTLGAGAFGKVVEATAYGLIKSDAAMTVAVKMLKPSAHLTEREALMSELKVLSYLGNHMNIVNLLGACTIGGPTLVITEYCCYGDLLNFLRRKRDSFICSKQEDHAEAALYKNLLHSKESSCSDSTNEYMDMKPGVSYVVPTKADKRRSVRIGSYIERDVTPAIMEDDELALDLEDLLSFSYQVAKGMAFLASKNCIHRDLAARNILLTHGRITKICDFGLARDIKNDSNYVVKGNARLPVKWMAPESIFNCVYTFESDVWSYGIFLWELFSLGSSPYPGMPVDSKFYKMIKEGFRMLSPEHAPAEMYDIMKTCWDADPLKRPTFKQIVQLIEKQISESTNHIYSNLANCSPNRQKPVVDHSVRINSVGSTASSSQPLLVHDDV
Sequence of PDGFR-α (P16234 24-1089): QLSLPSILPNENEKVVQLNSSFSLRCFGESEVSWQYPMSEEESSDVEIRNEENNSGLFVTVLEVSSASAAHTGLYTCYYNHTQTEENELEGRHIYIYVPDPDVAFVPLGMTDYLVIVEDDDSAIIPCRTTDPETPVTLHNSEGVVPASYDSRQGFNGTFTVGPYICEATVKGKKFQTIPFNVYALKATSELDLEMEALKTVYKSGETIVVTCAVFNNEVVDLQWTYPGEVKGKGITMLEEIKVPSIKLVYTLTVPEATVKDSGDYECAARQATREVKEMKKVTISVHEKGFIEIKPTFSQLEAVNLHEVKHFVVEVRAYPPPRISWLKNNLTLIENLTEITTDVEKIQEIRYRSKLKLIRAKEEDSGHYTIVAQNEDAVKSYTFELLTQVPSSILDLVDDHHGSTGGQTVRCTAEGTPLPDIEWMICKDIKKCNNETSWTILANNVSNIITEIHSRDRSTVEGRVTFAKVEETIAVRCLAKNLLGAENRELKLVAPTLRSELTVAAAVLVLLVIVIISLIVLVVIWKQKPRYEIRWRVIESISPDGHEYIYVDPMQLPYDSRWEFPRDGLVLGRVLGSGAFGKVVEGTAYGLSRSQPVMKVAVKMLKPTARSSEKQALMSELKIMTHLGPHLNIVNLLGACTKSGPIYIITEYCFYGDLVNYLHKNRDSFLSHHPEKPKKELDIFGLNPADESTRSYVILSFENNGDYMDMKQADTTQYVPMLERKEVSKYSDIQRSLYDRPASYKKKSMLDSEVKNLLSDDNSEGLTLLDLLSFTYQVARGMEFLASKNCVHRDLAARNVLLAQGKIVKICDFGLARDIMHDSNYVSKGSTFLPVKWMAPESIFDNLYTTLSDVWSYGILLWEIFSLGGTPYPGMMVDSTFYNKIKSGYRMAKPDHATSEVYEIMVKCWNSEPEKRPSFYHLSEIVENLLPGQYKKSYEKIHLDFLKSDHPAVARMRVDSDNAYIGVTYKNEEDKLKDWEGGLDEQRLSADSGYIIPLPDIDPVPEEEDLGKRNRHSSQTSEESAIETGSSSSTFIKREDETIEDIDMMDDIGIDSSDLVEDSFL
Sequence of CHEK2 (O96017 whole entry): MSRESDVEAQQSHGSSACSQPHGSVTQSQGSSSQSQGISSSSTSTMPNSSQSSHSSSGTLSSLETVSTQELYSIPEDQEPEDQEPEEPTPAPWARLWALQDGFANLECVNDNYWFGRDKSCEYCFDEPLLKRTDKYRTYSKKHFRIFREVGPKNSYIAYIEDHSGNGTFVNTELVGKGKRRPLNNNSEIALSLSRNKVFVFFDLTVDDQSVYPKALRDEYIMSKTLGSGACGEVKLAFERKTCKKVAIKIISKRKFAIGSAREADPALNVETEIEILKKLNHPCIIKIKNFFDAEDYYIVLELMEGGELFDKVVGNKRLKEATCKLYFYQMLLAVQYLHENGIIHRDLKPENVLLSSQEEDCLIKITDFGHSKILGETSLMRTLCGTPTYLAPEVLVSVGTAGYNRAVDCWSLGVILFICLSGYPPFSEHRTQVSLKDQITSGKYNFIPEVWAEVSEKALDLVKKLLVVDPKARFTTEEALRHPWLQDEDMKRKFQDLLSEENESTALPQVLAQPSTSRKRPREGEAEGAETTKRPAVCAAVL
Sequence of INSR (P06213 28-1382): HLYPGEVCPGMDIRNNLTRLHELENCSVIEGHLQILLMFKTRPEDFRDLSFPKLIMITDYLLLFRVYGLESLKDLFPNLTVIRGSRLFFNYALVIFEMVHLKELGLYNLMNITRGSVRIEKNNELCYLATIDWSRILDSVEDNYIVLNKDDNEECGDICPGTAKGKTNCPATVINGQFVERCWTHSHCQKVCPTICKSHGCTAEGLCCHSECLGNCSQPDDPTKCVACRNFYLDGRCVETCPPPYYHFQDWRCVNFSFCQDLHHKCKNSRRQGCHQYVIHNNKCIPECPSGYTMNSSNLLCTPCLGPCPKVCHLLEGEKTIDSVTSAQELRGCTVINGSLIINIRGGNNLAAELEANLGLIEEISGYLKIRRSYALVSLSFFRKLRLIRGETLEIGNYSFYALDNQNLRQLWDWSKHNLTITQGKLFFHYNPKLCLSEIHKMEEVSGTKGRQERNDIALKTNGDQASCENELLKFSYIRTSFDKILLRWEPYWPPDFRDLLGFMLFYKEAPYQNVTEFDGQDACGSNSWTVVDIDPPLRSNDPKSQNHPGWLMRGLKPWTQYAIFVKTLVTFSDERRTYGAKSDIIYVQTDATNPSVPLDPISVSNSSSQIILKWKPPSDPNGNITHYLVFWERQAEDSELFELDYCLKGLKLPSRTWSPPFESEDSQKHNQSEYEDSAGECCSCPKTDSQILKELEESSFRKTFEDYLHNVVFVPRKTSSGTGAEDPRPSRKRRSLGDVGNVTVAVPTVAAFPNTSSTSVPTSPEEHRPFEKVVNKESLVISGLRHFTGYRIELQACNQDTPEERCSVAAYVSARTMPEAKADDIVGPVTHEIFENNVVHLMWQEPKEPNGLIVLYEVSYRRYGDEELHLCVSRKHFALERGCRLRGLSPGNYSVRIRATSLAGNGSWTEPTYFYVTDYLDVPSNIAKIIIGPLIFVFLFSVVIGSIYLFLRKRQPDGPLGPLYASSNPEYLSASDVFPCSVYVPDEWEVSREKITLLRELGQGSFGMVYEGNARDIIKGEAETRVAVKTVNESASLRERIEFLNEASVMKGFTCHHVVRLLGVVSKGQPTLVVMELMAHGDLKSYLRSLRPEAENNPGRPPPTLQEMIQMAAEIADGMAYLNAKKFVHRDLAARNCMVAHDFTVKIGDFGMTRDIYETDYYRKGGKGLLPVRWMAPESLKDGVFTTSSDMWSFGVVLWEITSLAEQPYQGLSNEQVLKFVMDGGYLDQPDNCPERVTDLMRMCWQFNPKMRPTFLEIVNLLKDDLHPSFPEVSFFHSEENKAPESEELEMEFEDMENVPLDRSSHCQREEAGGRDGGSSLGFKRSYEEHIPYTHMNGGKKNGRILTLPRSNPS
Sequence of MAPKAPK-2 (P49137 whole entry): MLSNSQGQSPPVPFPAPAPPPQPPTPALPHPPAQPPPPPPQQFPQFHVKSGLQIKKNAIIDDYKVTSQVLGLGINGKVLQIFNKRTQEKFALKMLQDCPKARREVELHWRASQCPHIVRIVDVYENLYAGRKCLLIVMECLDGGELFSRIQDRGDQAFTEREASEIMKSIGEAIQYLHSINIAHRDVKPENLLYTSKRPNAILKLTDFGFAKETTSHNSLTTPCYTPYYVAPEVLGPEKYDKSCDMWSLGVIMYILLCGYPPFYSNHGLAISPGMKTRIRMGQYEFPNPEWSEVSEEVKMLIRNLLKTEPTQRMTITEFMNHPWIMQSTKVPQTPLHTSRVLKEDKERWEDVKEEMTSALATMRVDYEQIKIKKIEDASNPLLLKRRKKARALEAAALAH

SMILES: COc1ccc(-c2csc(N(CCCN3CCOCC3)C(=O)c3cc(Cl)sc3Cl)n2)cc1 [2,5-dichloro-N-(4-(4-methoxyphenyl)thiazol-2-yl)-N-(3-morpholinopropyl)thiophene-3-carboxamide]
Activity (CDK2): CDK2

SMILES: COc1ccc(-c2csc(N(CCCN3CCOCC3)C(=O)Cc3ccccc3Cl)n2)cc1 [2-(2-chlorophenyl)-N-(4-(4-methoxyphenyl)thiazol-2-yl)-N-(3-morpholinopropyl)acetamide]
Activity (BMX): BMX

SMILES: O=C(c1cccs1)N(CCCN1CCOCC1)c1nc(-c2cccnc2)cs1 [N-(3-morpholinopropyl)-N-(4-(pyridin-3-yl)thiazol-2-yl)thiophene-2-carboxamide]
Activity (AKT1): AKT1
Activity (CDK2/cyclin E): CDK2/cyclin E

SMILES: CCN(CC)c1ccc(-c2csc(N(CCCN3CCOCC3)C(=O)c3cccs3)n2)cc1 [N-(4-(4-(diethylamino)phenyl)thiazol-2-yl)-N-(3-morpholinopropyl)thiophene-2-carboxamide]
Activity (AKT1): AKT1
Activity (SYK): SYK

SMILES: COc1ccc(-c2csc(N(CCCN3CCOCC3)C(=O)c3cc(C)n(C)c3C)n2)cc1 [N-(4-(4-methoxyphenyl)thiazol-2-yl)-1,2,5-trimethyl-N-(3-morpholinopropyl)-1H-pyrrole-3-carboxamide]
Activity (CDK2/cyclin E): CDK2/cyclin E

SMILES: COc1ccc(-c2csc(N(CCCN3CCOCC3)C(=O)c3sc(C)nc3C)n2)cc1 [N-(4-(4-methoxyphenyl)thiazol-2-yl)-2,4-dimethyl-N-(3-morpholinopropyl)thiazole-5-carboxamide]
Activity (PDK1): PDK1

SMILES: COc1ccc(-c2csc(N(CCCN3CCOCC3)C(=O)c3snnc3C)n2)cc1 [N-(4-(4-methoxyphenyl)thiazol-2-yl)-4-methyl-N-(3-morpholinopropyl)-1,2,3-thiadiazole-5-carboxamide]
Activity (DYRK2): DYRK2
Activity (FLT-3): FLT-3
Activity (KIT): KIT
Activity (PDGFR-α): PDGFR-α
Activity (ZAP70): ZAP70

Further lines, results first:

Activity (FLT-3): FLT-3
SMILES: COc1ccc(-c2csc(N(CCCN3CCOCC3)C(=O)c3ccc(C)cc3)n2)cc1 [N-(4-(4-methoxyphenyl)thiazol-2-yl)-4-methyl-N-(3-morpholinopropyl)benzamide]

Activity (AKT1): AKT1
Activity (CHEK2): CHEK2
Activity (MAPKAPK-2): MAPKAPK-2
SMILES: COc1ccc(-c2csc(N(CCCN3CCN(C)CC3)C(=O)c3ccco3)n2)cc1 [N-(4-(4-methoxyphenyl)thiazol-2-yl)-N-(3-(4-methylpiperazin-1-yl)propyl)furan-2-carboxamide]

Activity (AKT1): AKT1
Activity (INSR): INSR
SMILES: COc1ccc(-c2csc(N(CCCN3CCN(C)CC3)C(=O)c3cccs3)n2)cc1 [N-(4-(4-methoxyphenyl)thiazol-2-yl)-N-(3-(4-methylpiperazin-1-yl)propyl)thiophene-2-carboxamide]

Activity (FLT-3): FLT-3
Activity (KIT): KIT
Activity (ZAP70): ZAP70
SMILES: COc1ccc(-c2csc(N(CCCN3CCOCC3)C(=O)c3ccc([N+](=O)[O-])s3)n2)cc1 [N-(4-(4-methoxyphenyl)thiazol-2-yl)-N-(3-morpholinopropyl)-5-nitrothiophene-2-carboxamide]
